We go through five compounds from the NIST ThermoML archive (doi:10.1016/j.fluid.2007.01.021).

The conditions of data set [1]: 293.15 K; 101.33 kPa; Liquid.
A short description of data set [2]: refractive index (Na D-line) (dimensionless). As to conditions: 293.15 K; 101.33 kPa; Liquid; Standard Abbe refractometry.

The mass density is mass per unit of volume. Usually refractive index stands for a measure of how strongly the sample bends light.

The structures appear in SMILES notation. ± gives the expanded uncertainty stated by the source.

`OC1CCCCC1` [cyclohexanol]: the mass density in data set [1] amounted to 962.3 ± 0.6 kg/m3. Moreover, the refractive index in data set [2] amounted to 1.4639 ± 0.0006.

`CC(=O)OC1CCCCC1` [cyclohexyl ethanoate]: the mass density in data set [1] is recorded as 968.2 ± 0.5 kg/m3. The refractive index in data set [2] turned out to be 1.4422 ± 0.0006.

On to `CCCCCOC(C)=O` [pentyl ethanoate], for which the mass density in data set [1] was determined as 875 ± 0.8 kg/m3. In addition, in data set [2], the refractive index amounted to 1.4026 ± 0.0006.

For the compound `CCCO` [propan-1-ol], the mass density in data set [1] turned out to be 803.5 ± 1 kg/m3. Further, the refractive index in data set [2] is listed as 1.385 ± 0.0006.

On to `O` [water], for which the mass density in data set [1] stood at 998.4 ± 0.5 kg/m3. The refractive index in data set [2] is given as 1.3326 ± 0.0006.
